Reference: publication PMC4666645 (PLoS Pathogens, 2015)
Structures can show the parent of a compound that is named as a salt.

Columns and labels:
[1] = system: native C. elegans L-AChR; conditions: cited from earlier work
[2] = molecular target: T1, Hco-L-AChR-2 (Hco-UNC-38, Hco-UNC-63, Hco-UNC-29.1) (Haemonchus contortus, UniProt D6MYE9+D6MYF3+D6MYF4); experiment: Two-electrode voltage-clamp on Xenopus oocytes expressing Hco-L-AChR-2; assay type: cell-based; conditions: for Response to agonist: 100 μM agonist
T1 sequence (D6MYF3 20-512): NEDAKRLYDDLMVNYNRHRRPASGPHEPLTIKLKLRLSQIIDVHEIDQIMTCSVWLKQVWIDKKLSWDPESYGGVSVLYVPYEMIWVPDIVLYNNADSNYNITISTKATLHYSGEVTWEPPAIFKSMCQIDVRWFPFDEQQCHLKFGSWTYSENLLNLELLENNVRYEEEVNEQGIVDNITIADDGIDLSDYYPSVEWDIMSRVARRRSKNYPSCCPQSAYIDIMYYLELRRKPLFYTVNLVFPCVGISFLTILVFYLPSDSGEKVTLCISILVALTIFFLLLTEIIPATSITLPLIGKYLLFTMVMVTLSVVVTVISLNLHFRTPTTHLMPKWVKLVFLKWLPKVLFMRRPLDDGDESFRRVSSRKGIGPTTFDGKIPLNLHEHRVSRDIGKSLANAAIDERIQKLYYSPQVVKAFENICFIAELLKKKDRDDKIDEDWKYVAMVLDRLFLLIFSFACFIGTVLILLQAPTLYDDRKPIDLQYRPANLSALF
T1 sequence (D6MYF4 22-504): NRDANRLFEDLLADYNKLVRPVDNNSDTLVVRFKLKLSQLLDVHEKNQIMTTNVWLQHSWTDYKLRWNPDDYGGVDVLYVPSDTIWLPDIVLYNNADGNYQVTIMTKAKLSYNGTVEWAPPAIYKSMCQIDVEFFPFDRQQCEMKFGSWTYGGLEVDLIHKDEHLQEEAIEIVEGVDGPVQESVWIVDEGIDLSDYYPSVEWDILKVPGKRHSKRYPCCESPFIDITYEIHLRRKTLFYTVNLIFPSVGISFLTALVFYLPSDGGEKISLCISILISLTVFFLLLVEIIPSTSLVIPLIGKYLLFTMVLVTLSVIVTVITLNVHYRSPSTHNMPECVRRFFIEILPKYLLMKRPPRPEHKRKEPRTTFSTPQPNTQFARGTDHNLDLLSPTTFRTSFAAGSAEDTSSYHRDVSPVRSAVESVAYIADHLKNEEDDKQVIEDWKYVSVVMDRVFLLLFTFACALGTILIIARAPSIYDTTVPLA
T1 sequence (D6MYE9 21-498): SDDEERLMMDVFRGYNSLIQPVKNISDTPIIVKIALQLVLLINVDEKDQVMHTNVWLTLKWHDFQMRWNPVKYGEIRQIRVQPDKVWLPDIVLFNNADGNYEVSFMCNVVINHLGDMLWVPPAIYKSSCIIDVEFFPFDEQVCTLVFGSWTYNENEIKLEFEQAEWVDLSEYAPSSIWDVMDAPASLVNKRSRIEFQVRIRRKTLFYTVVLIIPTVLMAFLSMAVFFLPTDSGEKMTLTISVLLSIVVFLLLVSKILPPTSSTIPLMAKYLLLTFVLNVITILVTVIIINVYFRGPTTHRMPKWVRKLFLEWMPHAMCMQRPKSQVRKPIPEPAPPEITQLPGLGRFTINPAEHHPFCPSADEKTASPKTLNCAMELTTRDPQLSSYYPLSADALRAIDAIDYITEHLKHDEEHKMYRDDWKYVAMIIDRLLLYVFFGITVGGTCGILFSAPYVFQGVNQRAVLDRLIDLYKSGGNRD
Text: H. contortus and P. equorum acr-26 and acr-27 cDNAs were PCR-amplified using primers containing a restriction site in order to be sub-cloned into the expression vector pTB207 that is suitable for in vitro transcription. Primers are listed in S3 Table. The resulting plasmids were linearized with the NheI restriction enzyme (Fermantas) and used as templates for cRNA synthesis using the T7 mMessage mMachine kit (Ambion). Xenopus laevis ovaries were obtained from the University of Rennes, France (CRB Xenope) and defolliculated using 2 mg/ml collagenase type II (Gibco) in the incubation solution containing: 100 mM NaCl, 2 mM KCl, 1.8 mM CaCl2.2H2O, 1 mM MgCl2.6H2O, 5 mM HEPES, 2.5 mM C3H3NaO3, pH 7.5, supplemented with penicillin 100 U/mL and streptomycin 100 μg/mL). The oocytes were injected in the animal pole with a total volume of 36 nL of cRNA mix containing 50 ng/μL of each cRNA in RNase-free water using the Drummond nanoject II microinjector. Microinjected oocytes were kept at 20°C in incubation medium for 4 days to allow the receptors expression. Two-electrode voltage-clamp recordings were carried out using an Oocyte Clamp OC-725C amplifier (Warner instrument) in oocytes being voltage-clamped at -60mV. All agonist preparations were prepared with recording buffer (100 mM NaCl, 2.5 mM KCl, 1 mM CaCl2.2H2O, 5 mM HEPES, pH 7.3). Currents were recorded and analyzed using the pCLAMP 10.4 package (Molecular Devices).
Supplementary file ppat.1005267.s003.tif: S3 Fig Pharmacological profiles of Hco-L-AChR-1 and Hco-L-AChR-2. […] The bars indicate the time period of the agonist application. Functional expression of Hco-L-AChR-1 requires the co-expression of Hco-UNC-38; Hco-UNC-63; Hco-UNC-29.1 and Hco-ACR-8 AChR subunits with the ancillary proteins Hco-RIC-3.1; Hco-UNC-50 and Hco-UNC-74 whereas Hco-L-AChR-2 requires the co-expression of Hco-UNC-38; Hco-UNC-63 and Hco-UNC-29.1 AChR subunits with the ancillary proteins Hco-RIC-3.1; Hco-UNC-50 and Hco-UNC-74. (C) Scatter plot (mean ± SEM) of normalized currents elicited by 100 μM Mor on Hco-26/27, Hco-L-AChR-1 and Hco-L-AChR-2. […]

c1ccc([C@H]2CN3CCSC3=N2)cc1 [Lev, (-)-tetramisole hydrochloride]
EC50 [1]: 10 µM

Cc1ccsc1/C=C/C1=NCCCN1C [Mor, morantel]
EC50 [2]: 3.2 ± 1.2 µM
Response to agonist [2]: less activated

CN1CCCN=C1/C=C/c1cccs1 [Pyr, pyrantel]
Response to agonist [2]: highly responsive
